Results taken from ChEMBL document CHEMBL4190286, “Modulating the Serotonin Receptor Spectrum of Pulicatin Natural Products” (J Nat Prod, 2017).

How the values were obtained:
[1] = target: T1, 5-hydroxytryptamine receptor 3A (Homo sapiens, UniProt P46098); experiment: Displacement of [3H]-GR65630 from human 5-HT3 receptor expressed in HEKT cells after 90 mins by microbeta scintillation counting analysis; format: cell-based
T1 sequence (P46098 whole entry): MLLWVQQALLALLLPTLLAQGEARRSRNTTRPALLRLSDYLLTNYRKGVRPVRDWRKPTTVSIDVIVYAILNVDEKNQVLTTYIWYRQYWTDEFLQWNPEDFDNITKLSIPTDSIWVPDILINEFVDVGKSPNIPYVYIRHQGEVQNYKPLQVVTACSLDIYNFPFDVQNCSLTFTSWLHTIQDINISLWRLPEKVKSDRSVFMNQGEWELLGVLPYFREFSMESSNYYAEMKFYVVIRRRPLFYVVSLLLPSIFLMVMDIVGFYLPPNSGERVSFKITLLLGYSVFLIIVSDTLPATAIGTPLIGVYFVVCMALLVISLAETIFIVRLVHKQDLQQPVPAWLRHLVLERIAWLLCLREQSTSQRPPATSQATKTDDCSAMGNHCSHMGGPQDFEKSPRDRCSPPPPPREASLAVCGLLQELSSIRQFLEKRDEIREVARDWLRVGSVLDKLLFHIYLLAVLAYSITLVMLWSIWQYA

[2] = target: T2, 5-hydroxytryptamine receptor 7 (Homo sapiens, UniProt P34969); experiment: Displacement of [3H]-LSD from human 5-HT7A receptor expressed in HEK cells after 90 mins by microbeta scintillation counting analysis; format: cell-based
[3] = target: T3, 5-hydroxytryptamine receptor 2C (Homo sapiens, UniProt P28335); experiment: Displacement of [3H]-Mesulergine from human 5-HT2C receptor expressed in HEKT cells after 90 mins by microbeta scintillation counting analysis; format: cell-based
T3 sequence (P28335 whole entry): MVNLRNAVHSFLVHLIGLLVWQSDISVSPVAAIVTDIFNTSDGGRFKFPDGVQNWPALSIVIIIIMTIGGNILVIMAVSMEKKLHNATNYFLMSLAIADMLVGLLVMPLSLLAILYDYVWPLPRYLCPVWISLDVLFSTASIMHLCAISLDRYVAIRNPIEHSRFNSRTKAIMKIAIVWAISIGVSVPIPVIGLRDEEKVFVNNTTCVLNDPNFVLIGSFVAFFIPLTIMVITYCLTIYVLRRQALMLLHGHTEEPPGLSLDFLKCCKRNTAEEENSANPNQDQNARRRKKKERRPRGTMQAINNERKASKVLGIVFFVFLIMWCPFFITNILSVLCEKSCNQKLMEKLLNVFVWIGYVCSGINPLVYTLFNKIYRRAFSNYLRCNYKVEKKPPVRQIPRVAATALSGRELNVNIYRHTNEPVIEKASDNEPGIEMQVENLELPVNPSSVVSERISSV

[4] = target: T4, 5-hydroxytryptamine receptor 1D (Homo sapiens, UniProt P28221); experiment: Displacement of [3H]5-CT from human 5-HT1D receptor expressed in HEKT cells after 90 mins by microbeta scintillation counting analysis; format: cell-based
[5] = target: T5, 5-hydroxytryptamine receptor 1E (Homo sapiens, UniProt P28566); experiment: Displacement of [3H]5-HT from human 5-HT1E receptor expressed in HEK cells after 90 mins by microbeta scintillation counting analysis; format: cell-based
[6] = target: T6, 5-hydroxytryptamine receptor 2A (Homo sapiens, UniProt P28223); experiment: Displacement of [3H]Ketanserin from 5-HT2A (unknown origin) receptor after 90 mins by microbeta scintillation counting analysis
[7] = target: T7, 5-hydroxytryptamine receptor 2B (Homo sapiens, UniProt P41595); experiment: Displacement of [3H]-LSD from human 5-HT2B receptor expressed in HEK cells after 90 mins by microbeta scintillation counting analysis; format: cell-based
[8] = target: T8, 5-hydroxytryptamine receptor 5A (Homo sapiens, UniProt P47898); experiment: Displacement of [3H]-LSD from human 5-HT5A receptor expressed in Flp-In CHO cells after 90 mins by microbeta scintillation counting analysis; format: cell-based
[9] = target: T9, 5-hydroxytryptamine receptor 6 (Homo sapiens, UniProt P50406); experiment: Displacement of [3H]-LSD from human 5-HT6 receptor expressed in HEK cells after 90 mins by microbeta scintillation counting analysis; format: cell-based
[10] = target: T10, 5-hydroxytryptamine receptor 1B (Homo sapiens, UniProt P28222); experiment: Displacement of [3H]5-CT from human 5-HT1B receptor expressed in HEK cells after 90 mins by microbeta scintillation counting analysis; format: cell-based
[11] = target: T11, 5-hydroxytryptamine receptor 1A (Homo sapiens, UniProt P08908); experiment: Antagonist activity at 5-HT1A receptor (unknown origin) by Tango assay; format: functional
T11 sequence (P08908 whole entry): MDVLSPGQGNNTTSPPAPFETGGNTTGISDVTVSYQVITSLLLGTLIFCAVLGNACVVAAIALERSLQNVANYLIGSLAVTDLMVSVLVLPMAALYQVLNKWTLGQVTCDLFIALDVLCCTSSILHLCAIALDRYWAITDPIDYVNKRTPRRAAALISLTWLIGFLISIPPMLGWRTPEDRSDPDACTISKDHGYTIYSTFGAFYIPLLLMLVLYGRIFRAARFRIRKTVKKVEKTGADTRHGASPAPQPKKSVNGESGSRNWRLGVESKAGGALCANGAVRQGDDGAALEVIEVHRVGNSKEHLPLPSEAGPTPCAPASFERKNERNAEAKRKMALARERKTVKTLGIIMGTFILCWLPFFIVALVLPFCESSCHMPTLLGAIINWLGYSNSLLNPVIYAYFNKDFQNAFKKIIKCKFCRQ

[12] = target: T7, 5-hydroxytryptamine receptor 2B; experiment: Antagonist activity at 5-HT2B receptor (unknown origin) by calcium release assay; format: functional
[13] = target: T2, 5-hydroxytryptamine receptor 7; experiment: Antagonist activity at 5-HT7A receptor (unknown origin) by Tango assay
[14] = target: T9, 5-hydroxytryptamine receptor 6; experiment: Binding affinity to 5-HT6 receptor (unknown origin) by radioligand binding assay
[15] = target: T3, 5-hydroxytryptamine receptor 2C; experiment: Binding affinity to 5-HT2C receptor (unknown origin) by radioligand binding assay
[16] = target: T6, 5-hydroxytryptamine receptor 2A; experiment: Binding affinity to 5-HT2A receptor (unknown origin) by radioligand binding assay
[17] = target: T5, 5-hydroxytryptamine receptor 1E; experiment: Binding affinity to 5-HT1E receptor (unknown origin) by radioligand binding assay
[18] = target: T10, 5-hydroxytryptamine receptor 1B; experiment: Displacement of [3H]-LSD from human 5-HT1B receptor expressed in baculovirus infected Sf9 cells
[19] = target: T1, 5-hydroxytryptamine receptor 3A; experiment: Binding affinity to 5-HT3 receptor (unknown origin) by radioligand binding assay
[20] = target: T8, 5-hydroxytryptamine receptor 5A; experiment: Binding affinity to 5-HT5A receptor (unknown origin) by radioligand binding assay
[21] = target: T4, 5-hydroxytryptamine receptor 1D; experiment: Binding affinity to 5-HT1D receptor (unknown origin) by radioligand binding assay
[22] = target: T2, 5-hydroxytryptamine receptor 7; experiment: Binding affinity to 5-HT7A receptor (unknown origin) by radioligand binding assay
[23] = target: T7, 5-hydroxytryptamine receptor 2B; experiment: Displacement of [3H]-LSD from human 5-HT2B receptor expressed in baculovirus infected Sf9 cells

T5 sequence (P28566 whole entry): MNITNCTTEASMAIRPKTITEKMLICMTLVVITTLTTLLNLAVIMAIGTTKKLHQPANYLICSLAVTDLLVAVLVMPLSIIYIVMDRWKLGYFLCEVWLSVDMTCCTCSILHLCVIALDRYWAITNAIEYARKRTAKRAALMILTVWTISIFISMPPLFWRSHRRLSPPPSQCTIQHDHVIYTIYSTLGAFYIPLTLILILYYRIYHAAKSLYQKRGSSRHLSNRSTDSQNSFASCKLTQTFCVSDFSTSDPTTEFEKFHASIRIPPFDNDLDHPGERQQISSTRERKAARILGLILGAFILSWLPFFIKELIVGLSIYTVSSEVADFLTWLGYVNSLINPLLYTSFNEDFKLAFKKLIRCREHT
T6 sequence (P28223 whole entry): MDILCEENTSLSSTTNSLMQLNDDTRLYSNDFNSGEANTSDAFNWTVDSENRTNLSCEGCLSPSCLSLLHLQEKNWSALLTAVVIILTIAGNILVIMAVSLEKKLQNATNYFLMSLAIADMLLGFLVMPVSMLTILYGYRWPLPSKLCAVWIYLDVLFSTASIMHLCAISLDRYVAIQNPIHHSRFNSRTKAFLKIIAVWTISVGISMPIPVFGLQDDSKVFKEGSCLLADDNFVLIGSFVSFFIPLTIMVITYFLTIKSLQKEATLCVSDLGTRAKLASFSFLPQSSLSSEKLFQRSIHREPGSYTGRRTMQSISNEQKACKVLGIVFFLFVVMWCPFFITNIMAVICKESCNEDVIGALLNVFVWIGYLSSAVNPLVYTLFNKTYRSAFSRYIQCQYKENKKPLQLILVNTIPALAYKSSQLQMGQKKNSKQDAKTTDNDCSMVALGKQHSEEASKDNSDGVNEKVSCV
T8 sequence (P47898 whole entry): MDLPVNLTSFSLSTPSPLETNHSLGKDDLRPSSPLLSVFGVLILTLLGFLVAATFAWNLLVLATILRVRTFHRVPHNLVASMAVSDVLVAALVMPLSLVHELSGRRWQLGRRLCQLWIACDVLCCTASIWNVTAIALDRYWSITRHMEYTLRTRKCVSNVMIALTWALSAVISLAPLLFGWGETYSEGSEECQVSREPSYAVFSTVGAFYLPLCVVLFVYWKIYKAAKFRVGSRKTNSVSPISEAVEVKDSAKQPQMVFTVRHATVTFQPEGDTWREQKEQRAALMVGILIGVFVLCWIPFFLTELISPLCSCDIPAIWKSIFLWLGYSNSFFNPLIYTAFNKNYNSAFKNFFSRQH
T10 sequence (P28222 whole entry): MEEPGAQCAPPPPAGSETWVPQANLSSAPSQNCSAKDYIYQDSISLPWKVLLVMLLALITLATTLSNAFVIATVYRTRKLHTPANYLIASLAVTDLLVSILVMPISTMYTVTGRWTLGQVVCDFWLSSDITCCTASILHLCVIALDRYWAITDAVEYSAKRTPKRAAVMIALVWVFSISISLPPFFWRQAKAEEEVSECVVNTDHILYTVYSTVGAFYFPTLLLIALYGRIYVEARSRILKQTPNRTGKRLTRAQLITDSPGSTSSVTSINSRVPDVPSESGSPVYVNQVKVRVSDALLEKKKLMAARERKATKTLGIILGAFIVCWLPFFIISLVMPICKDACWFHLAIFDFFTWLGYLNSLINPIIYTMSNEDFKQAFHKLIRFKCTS
T4 sequence (P28221 whole entry): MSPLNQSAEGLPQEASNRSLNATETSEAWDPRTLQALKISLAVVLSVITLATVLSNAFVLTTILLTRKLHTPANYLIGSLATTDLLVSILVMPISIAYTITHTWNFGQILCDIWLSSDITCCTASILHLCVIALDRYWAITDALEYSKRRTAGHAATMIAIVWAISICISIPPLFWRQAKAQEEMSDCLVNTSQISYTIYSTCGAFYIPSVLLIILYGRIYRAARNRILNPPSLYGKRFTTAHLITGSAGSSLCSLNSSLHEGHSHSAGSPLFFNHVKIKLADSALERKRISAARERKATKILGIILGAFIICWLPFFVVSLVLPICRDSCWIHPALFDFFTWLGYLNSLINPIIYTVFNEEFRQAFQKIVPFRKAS
T9 sequence (P50406 whole entry): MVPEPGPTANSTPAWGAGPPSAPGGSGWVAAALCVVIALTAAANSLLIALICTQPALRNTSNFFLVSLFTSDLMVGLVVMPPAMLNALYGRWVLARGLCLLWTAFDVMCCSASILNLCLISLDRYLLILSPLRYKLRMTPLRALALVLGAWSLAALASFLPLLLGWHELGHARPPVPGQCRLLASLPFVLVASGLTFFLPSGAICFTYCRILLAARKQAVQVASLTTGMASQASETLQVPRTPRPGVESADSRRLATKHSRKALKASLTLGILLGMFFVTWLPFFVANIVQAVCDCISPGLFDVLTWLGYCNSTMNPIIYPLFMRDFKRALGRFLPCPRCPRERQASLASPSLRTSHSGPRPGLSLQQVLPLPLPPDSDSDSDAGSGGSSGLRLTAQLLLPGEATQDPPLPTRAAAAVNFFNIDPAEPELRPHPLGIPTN
T2 sequence (P34969 whole entry): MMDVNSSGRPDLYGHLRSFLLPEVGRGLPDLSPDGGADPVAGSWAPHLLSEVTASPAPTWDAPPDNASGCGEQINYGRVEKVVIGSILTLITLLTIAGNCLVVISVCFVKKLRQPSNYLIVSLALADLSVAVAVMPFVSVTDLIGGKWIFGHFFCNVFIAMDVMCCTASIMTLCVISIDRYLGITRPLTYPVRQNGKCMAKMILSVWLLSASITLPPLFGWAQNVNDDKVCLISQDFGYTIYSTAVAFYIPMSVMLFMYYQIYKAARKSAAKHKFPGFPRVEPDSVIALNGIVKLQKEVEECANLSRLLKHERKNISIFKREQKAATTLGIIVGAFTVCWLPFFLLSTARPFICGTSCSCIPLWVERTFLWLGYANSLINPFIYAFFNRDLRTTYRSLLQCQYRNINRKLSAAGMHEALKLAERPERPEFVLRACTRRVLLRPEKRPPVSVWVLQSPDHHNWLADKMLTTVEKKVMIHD
T7 sequence (P41595 whole entry): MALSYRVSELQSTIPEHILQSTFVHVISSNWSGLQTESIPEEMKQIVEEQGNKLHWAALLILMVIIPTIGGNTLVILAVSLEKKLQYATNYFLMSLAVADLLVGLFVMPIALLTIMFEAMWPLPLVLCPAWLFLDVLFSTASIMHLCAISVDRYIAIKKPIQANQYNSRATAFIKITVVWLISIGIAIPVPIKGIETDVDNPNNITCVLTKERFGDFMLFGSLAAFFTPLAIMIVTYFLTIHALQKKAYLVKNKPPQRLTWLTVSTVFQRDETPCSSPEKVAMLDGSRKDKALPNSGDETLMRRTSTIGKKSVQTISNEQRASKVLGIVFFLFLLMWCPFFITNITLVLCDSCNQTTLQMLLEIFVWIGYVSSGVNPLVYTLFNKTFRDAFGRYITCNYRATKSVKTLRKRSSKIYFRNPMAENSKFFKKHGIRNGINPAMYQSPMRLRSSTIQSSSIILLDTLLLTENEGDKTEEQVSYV

Structure (SMILES): C[C@@H]1SC(c2cccs2)=N[C@H]1CO (relative stereo)
- Ki [1]: > 10 µM
- Ki [2]: > 10 µM
- Ki [3]: 2.2 µM
- Ki [4]: > 10 µM
- Ki [5]: > 10 µM
- Ki [6]: > 10 µM
- Ki [7]: 1.4 µM
- Ki [8]: > 10 µM
- Ki [9]: > 10 µM
- Ki [10]: > 10 µM

Structure (SMILES): COC(=O)[C@H](Cc1cnc[nH]1)NC(=O)[C@@H]1N=C(c2ccccc2O)S[C@@H]1C
- Ki [1]: 3.1 µM
- Ki [2]: > 10 µM
- IC50 [11]: > 10 µM
- Ki [3]: 0.88 µM
- Ki [4]: 0.53 µM
- Ki [5]: 4.6 µM
- Ki [7]: 1.4 µM
- Ki [8]: > 10 µM
- Ki [9]: > 10 µM
- IC50 [12]: > 10 µM

Structure (SMILES): C[C@@H]1SC(c2ccccc2)=N[C@@H]1Cc1c[nH]cn1 (relative stereo)
- Ki [1]: 0.077 µM
- Ki [2]: 3.3 µM
- IC50 [11]: > 10 µM
- Ki [3]: 0.75 µM
- Ki [4]: 1.6 µM
- IC50 [13]: > 10 µM
- Ki [5]: 4 µM
- Ki [7]: 0.69 µM
- Ki [8]: 6.8 µM
- Ki [9]: > 10 µM
- IC50 [12]: > 10 µM

Structure (SMILES): C[C@@H]1SC(c2ccsc2)=N[C@H]1CO (relative stereo)
- Ki [1]: 6.7 µM
- Ki [2]: > 10 µM
- Ki [3]: > 10 µM
- Ki [4]: 8.6 µM
- Ki [5]: > 10 µM
- Ki [6]: > 10 µM
- Ki [7]: 1.5 µM
- Ki [8]: 8.2 µM
- Ki [9]: > 10 µM
- Ki [10]: > 10 µM

Structure (SMILES): OC[C@@H]1CSC(c2ccccc2O)=N1 [AERUGINE]
- Ki [14]: > 10 µM
- Ki [15]: > 10 µM
- Ki [16]: > 10 µM
- Ki [17]: > 10 µM
- Ki [18]: > 10 µM
- Ki [19]: > 10 µM
- Ki [20]: > 10 µM
- Ki [21]: > 10 µM
- Ki [22]: > 10 µM

Structure (SMILES): C[C@@H]1SC(c2cc3ccccc3cc2O)=N[C@H]1CO (relative stereo)
- Ki [1]: 1.8 µM
- Ki [2]: > 10 µM
- Ki [3]: 2.4 µM
- Ki [4]: > 10 µM
- Ki [5]: > 10 µM
- Ki [6]: > 10 µM
- Ki [7]: 0.81 µM
- Ki [8]: > 10 µM
- Ki [9]: > 10 µM
- Ki [10]: > 10 µM

Structure (SMILES): C[C@@H]1SC(c2ccccc2)=N[C@H]1CO (relative stereo)
- Ki [1]: 6.7 µM
- Ki [2]: > 10 µM
- Ki [3]: 35 µM
- Ki [4]: 5.3 µM
- Ki [5]: > 10 µM
- Ki [6]: > 10 µM
- Ki [7]: 3 µM
- Ki [8]: > 10 µM
- Ki [9]: > 10 µM
- Ki [10]: > 10 µM

Structure (SMILES): C[C@H]1SC(c2ccccc2O)=N[C@@H]1CO (racemic)
- Ki [3]: 2.2 µM
- Ki [7]: 0.62 µM

Structure (SMILES): C[C@H]1SC(c2ccc(-c3ccccc3)cc2)=N[C@H]1Cc1c[nH]cn1 (relative stereo)
- Ki [3]: 2.3 µM
- Ki [6]: 0.31 µM
- Ki [7]: 1.4 µM

Structure (SMILES): C[C@@H]1SC(c2ccccc2O)=N[C@H]1[C@@H]1SC[C@](C)(C(=O)O)N1C [WATASEMYCINS A]
- Ki [14]: > 10 µM
- Ki [23]: 4.7 µM
- Ki [15]: > 10 µM
- Ki [16]: > 10 µM
- Ki [17]: > 10 µM
- Ki [18]: > 10 µM
- Ki [19]: > 10 µM
- Ki [20]: > 10 µM
- Ki [21]: > 10 µM
- Ki [22]: > 10 µM

Structure (SMILES): O=Cc1csc(-c2ccccc2O)n1
- Ki [14]: > 10 µM
- Ki [23]: 1.5 µM
- Ki [15]: > 10 µM
- Ki [16]: > 10 µM
- Ki [17]: > 10 µM
- Ki [18]: > 10 µM
- Ki [19]: > 10 µM
- Ki [20]: > 10 µM
- Ki [21]: > 10 µM
- Ki [22]: > 10 µM
